Results: patent US6610502B1, “Compound 2-amino-3-[2-(α-mannopyranosyl)indol-3-yl]propionic acid, process for preparing the same, and method for inspecting function of living body with the novel compound” (Kyowa Medex Co., Ltd., priority 1997, dated 2003)
“And” between values parts separate entries of the source, which are not always exact repeats. Equal entries are not always repeated.

Assays:
[1] = tested on: monoclonal antibody specifically reactive with 2-amino-3-[2-(α-mannopyranosyl)indole-3-yl]propionic acid; test: Confirming the specificity of the monoclonal antibody (competitive enzyme immunoassay, absorbance at 660 nm); format: binding, mouse; details: test samples at concentrations not more than 100 μg/ml; plate coated with BSA conjugate
Description: First, 50 μl of 2-amino-3-[2-(α-D-mannopyranosyl)indole-3-yl]propionic acid-BSA conjugate solution (20 μg/ml, 0.1M carbonate buffer, pH9.5) was dispensed into a 96-well microtiter plate (available from NUNC) and left to stand at 4° C. overnight. After washing the plate with PBS (×3), 250 μl of 1% BSA/PBS solution was dispensed into the plate and left to stand at room temperature for 1 hour. Then, the plate was washed with PBS (×3) to be used as a reaction plate. Next, 50 μl of 0.1M phosphate buffer (pH 7.4) containing varied concentrations of test sample/0.1% BSA was dispensed into the reaction plate into which 50 μl of the monoclonal antibody prepared in e. Purifying the antibodies above (0.1M phosphate buffer containing l10 ng/ml 0.1% BSA, pH7.4) was added while stirring. The mixture was allowed to react at room temperature for 3 hours. After the reaction was completed, the plate was washed with PBS containing 0.05% Tween 20 (5×), and then 50 μl of POD labeled-anti-mouse immunoglobulins-rabbit IgG (DAKO) was added to the plate for reaction at room temperature for 1 hour. […] Finally, 50 μl of reaction stopper (ethyldiethyldithiocarbamate) was added to the plate of which absorbance was then determined at 660 nm by a microplate reader.

[2] = GFR assay, comparative example: creatinine in the same samples by enzymatic assay kit, clearance (Example 8); format: in vivo, human
[3] = Assay of excreted amount in urine, comparative example: creatinine by enzymatic assay kit (Example 9); format: in vivo, human; details: healthy persons

SMILES | decrease in the absorbance (reaction with the antibody) [1] | creatinine in serum ([2]; Average of 18 subjects) | creatinine in urine ([2]; Average of 18 subjects) | creatinine in serum ([2]; individual subjects 1-18, patients with non-renal disease) | creatinine in urine ([2]; individual subjects 1-18, urine stored for 24 hours) | excreted amount in urine, average ([3]; female, age 0-10) | excreted amount in urine, average ([3]; female, age 0-90) | excreted amount in urine, average ([3]; female, age 10-30) | excreted amount in urine, average ([3]; female, age 30-50) | excreted amount in urine, average ([3]; female, age 50-70) | excreted amount in urine, average ([3]; female, age 70-90) | excreted amount in urine, average ([3]; male, age 0-10) | excreted amount in urine, average ([3]; male, age 0-90) | excreted amount in urine, average ([3]; male, age 10-30) | excreted amount in urine, average ([3]; male, age 50-70) | excreted amount in urine, average ([3]; male, age 70-90)
O=C[C@@H](O)[C@@H](O)[C@H](O)[C@H](O)CO (racemic) [DL-mannose] | no decrease | – | – | – | – | – | – | – | – | – | – | – | – | – | – | –
CN1CC(=O)NC1=N [creatinine] | – | 0.65 mg/dL | 72.12 mg/dL | 0.61 mg/dl and 0.80 mg/dl (3×) and 0.50 mg/dl and 0.40 mg/dl (3×) and 0.70 mg/dl (4×) and 0.56 mg/dl and 0.72 mg/dl and 0.63 mg/dl and 0.64 mg/dl and 0.71 mg/dl and 0.84 mg/dl | 50.1 mg/dL and 48.9 mg/dL and 21.2 mg/dL and 51.9 mg/dL and 30.5 mg/dL and 70.2 mg/dL and 32.0 mg/dL and 74.1 mg/dL and 48.2 mg/dL and 138.8 mg/dL and 46.5 mg/dL and 100.2 mg/dL and 63.5 mg/dL and 142.0 mg/dL and 88.0 mg/dL and 69.9 mg/dL and 183.1 mg/dL and 39.0 mg/dL | 245 mg/day | 559 mg/day | 609 mg/day | 742 mg/day | 684 mg/day | 515 mg/day | 387 mg/day | 833 mg/day | 1066 mg/day | 893 mg/day | 599 mg/day
N[C@@H](Cc1c[nH]c2ccccc12)C(=O)O [L-tryptophan] | no decrease | – | – | – | – | – | – | – | – | – | – | – | – | – | – | –
